# pIC50: −log10 of the molar value.
# System: not listed separately
# Test: Rapid screening of radical scavenging activity by dot blot assay (DPPH staining)
# Settings: silica sheet stained with DPPH in MeOH, dilutions from 1000 μg/mL
# Procedure: An aliquot (20 μL) of each dilution of each group was carefully loaded on a […] TLC plate and allowed to dry for 10 min. Drops of each sample were loaded in the order of decreased concentration along the 16 columns. The staining of the silica plate was based on the procedure of Soler-Rivas et al.. […] The intensity of the yellow color depends upon the amount and nature of radical scavenger present in the flavonoids.
row,SMILES,radical scavenging activity by dot blot (intensity of yellow spots)
1,COc1ccc2c(=O)cc(-c3ccccc3)oc2c1O [8-Hydroxy-7-methoxyflavone],intermediate radical scavenging activity
2,"COc1c(OC(C)=O)cc(OC(C)=O)c2c(=O)cc(-c3ccccc3)oc12 [Acetate (wogonin), 5,7-Diacetoxy-8-methoxyflavone]",did not show any spot
3,"O=c1cc(-c2ccccc2)oc2cc(O)cc(O)c12 [Chrysin, 5,7-Dihydroxyflavone]",intermediate radical scavenging activity
4,"O=c1cc(-c2ccccc2)oc2c(O)c(O)cc(O)c12 [Norwogonin, 5,7,8-Trihydroxyflavone]",intermediate radical scavenging activity
5,"COc1c(O)cc(O)c2c(=O)cc(-c3ccccc3)oc12 [Wogonin, 5,7-Dihydroxy-8-methoxyflavone]",intermediate radical scavenging activity

# System: not listed separately
# Test: DPPH radical scavenging assay
# Settings: 30 min, 517 nm, mean ± SEM (n = 3)
# Procedure: Each sample's stock solution was diluted to final concentrations of 1000–0.4889 μg/mL in MeOH. A total of 1 mL of a 0.3 mM DPPH methanolic solution was added to 2.5 mL of sample solution of different concentrations and allowed to react at room temperature. After 30 min, the absorbance (Abs) values were measured at 517 nm with a microplate reader (Tecan NanoQuant Infinite M200, Switzerland) and converted into the percentage antioxidant activity using the following equation described previously: (1) % antioxidant activity=100−Abssample−Abssample blank/Abscontrol−Abscontrol blank×100. MeOH + compound solution was used as a blank, while DPPH solution plus MeOH was used as a negative control. The positive controls were DPPH solution plus 1 mM ascorbic acid. The IC50 values were calculated by linear regression of plots. The average percent of scavenging capacity was taken from three replicates.
row,SMILES,IC50 DPPH
1,COc1ccc2c(=O)cc(-c3ccccc3)oc2c1O [8-Hydroxy-7-methoxyflavone],68.24 ± 3.70^C µg/ml
2,"COc1c(OC(C)=O)cc(OC(C)=O)c2c(=O)cc(-c3ccccc3)oc12 [Acetate (wogonin), 5,7-Diacetoxy-8-methoxyflavone]",>200^A µg/ml
3,"O=c1cc(-c2ccccc2)oc2cc(O)cc(O)c12 [Chrysin, 5,7-Dihydroxyflavone]",>100^B µg/ml
4,"O=c1cc(-c2ccccc2)oc2c(O)c(O)cc(O)c12 [Norwogonin, 5,7,8-Trihydroxyflavone]",35.61 ± 1.68^D µg/ml
5,"COc1c(O)cc(O)c2c(=O)cc(-c3ccccc3)oc12 [Wogonin, 5,7-Dihydroxy-8-methoxyflavone]",>100^B µg/ml

# System: not listed separately
# Test: ABTS+ radical scavenging assay
# Settings: 734 nm, mean ± SEM (n = 3)
# Procedure: An improved ABTS^+ radical decolorization assay was carried out involving direct production of the blue/green ABTS^+ chromophore through the reaction between ABTS and potassium persulfate. Addition of antioxidant to the preformed radical cation reduces it to ABTS to an extent on a time scale depending on the antioxidant activity, the concentration of the antioxidant, and the duration of the reaction. 1 ml ABTS was dissolved in water to make 7 mM concentration of the resultant solution. […] The resultant reaction mixture was allowed to stand in the dark at room temperature for 12–16 h before being used. The ABTS^+ radical solution was diluted with MeOH to an absorbance of 0.7 (±0.02) at 734 nm. Then, 100 μl of sample at various concentrations (1000–0.4889 μg/mL) was mixed with 100 μL of diluted ABTS^+ radical. Each concentration was analyzed in triplicate and the percentage decrease of absorbance at 734 nm with a microplate reader (Tecan NanoQuant Infinite M200, Switzerland) was calculated for each point and the antioxidant capacity of the tested compounds was expressed as percent inhibition (%). The radical scavenging activity of the compounds was measured according to the following equation [29]:(2) % inhibition=Acontrol−Asample/Acontrol×100. IC50 values were calculated by linear regression of plots, and the average percent of scavenging capacity was taken from three replicates. Trolox was used as a standard in comparison for the determination of the antioxidant activity of the flavonoids.
row,SMILES,IC50 ABTS+
1,COc1ccc2c(=O)cc(-c3ccccc3)oc2c1O [8-Hydroxy-7-methoxyflavone],3.19 ± 0.15^F µg/ml
2,"COc1c(OC(C)=O)cc(OC(C)=O)c2c(=O)cc(-c3ccccc3)oc12 [Acetate (wogonin), 5,7-Diacetoxy-8-methoxyflavone]",>200^A µg/ml
3,"O=c1cc(-c2ccccc2)oc2cc(O)cc(O)c12 [Chrysin, 5,7-Dihydroxyflavone]",>100^B µg/ml
4,"O=c1cc(-c2ccccc2)oc2c(O)c(O)cc(O)c12 [Norwogonin, 5,7,8-Trihydroxyflavone]",1.24 ± 0.19^FG µg/ml
5,"COc1c(O)cc(O)c2c(=O)cc(-c3ccccc3)oc12 [Wogonin, 5,7-Dihydroxy-8-methoxyflavone]",52.63 ± 2.99^D µg/ml

# Same assay, conditions: 734 nm, mean ± SEM (n = 3), listed as wogonin
row,SMILES,IC50 ABTS+
1,"COc1c(O)cc(O)c2c(=O)cc(-c3ccccc3)oc12 [Wogonin, 5,7-Dihydroxy-8-methoxyflavone]",52.65 ± 2.99 µg/mL

# Target: T1, xanthine oxidase from buttermilk (Bos taurus, UniProt P80457)
# T1 construct: 0.3 U/mL enzymes (xanthine oxidase from buttermilk); purchased Sigma-Aldrich (Singapore); host or cells: buttermilk (natural source)
# Test: Xanthine oxidase inhibitory assay (XOI)
# Format: biochemical
# Settings: discussion
# Procedure: XO catalyzes the oxidation of hypoxanthine to xanthine and subsequently to uric acid. The inhibition of XO reduces both vascular oxidative stress and circulating levels of uric acid. This assay is based on the fact that the superoxide anions are generated by the xanthine. The xanthine oxidase inhibitory activity was measured spectrophotometrically (Tecan NanoQuant Infinite M200, Switzerland) at 295 nm under aerobic condition with slight modification. The reaction mixture contained 50 mM phosphate buffer (pH 7.5), 0.15 mM xanthine (substrate), and 0.3 U/mL enzymes (xanthine oxidase from buttermilk). Samples were prepared by dissolving 1 mg in 5% DMSO in MeOH which gives sample concentration of 144.0 μg/mL in assay. […] The absorption increment at 295 nm indicates the formation of […] of uric acid/min at 25°C. […] All determination was done in triplicate and half maximal concentration (IC50) values were calculated from the percentage of inhibition. XO inhibition activity was expressed as the percentage inhibition of XO as follows:(3) % of inhibition=AbsA−B−C−D/AbsA−B×100, where A is the negative control with B as the blank of A which is without the enzyme and the sample while C is the activity of the sample with enzyme with D as the blank of the sample without enzyme.
# T1 sequence (P80457 whole entry): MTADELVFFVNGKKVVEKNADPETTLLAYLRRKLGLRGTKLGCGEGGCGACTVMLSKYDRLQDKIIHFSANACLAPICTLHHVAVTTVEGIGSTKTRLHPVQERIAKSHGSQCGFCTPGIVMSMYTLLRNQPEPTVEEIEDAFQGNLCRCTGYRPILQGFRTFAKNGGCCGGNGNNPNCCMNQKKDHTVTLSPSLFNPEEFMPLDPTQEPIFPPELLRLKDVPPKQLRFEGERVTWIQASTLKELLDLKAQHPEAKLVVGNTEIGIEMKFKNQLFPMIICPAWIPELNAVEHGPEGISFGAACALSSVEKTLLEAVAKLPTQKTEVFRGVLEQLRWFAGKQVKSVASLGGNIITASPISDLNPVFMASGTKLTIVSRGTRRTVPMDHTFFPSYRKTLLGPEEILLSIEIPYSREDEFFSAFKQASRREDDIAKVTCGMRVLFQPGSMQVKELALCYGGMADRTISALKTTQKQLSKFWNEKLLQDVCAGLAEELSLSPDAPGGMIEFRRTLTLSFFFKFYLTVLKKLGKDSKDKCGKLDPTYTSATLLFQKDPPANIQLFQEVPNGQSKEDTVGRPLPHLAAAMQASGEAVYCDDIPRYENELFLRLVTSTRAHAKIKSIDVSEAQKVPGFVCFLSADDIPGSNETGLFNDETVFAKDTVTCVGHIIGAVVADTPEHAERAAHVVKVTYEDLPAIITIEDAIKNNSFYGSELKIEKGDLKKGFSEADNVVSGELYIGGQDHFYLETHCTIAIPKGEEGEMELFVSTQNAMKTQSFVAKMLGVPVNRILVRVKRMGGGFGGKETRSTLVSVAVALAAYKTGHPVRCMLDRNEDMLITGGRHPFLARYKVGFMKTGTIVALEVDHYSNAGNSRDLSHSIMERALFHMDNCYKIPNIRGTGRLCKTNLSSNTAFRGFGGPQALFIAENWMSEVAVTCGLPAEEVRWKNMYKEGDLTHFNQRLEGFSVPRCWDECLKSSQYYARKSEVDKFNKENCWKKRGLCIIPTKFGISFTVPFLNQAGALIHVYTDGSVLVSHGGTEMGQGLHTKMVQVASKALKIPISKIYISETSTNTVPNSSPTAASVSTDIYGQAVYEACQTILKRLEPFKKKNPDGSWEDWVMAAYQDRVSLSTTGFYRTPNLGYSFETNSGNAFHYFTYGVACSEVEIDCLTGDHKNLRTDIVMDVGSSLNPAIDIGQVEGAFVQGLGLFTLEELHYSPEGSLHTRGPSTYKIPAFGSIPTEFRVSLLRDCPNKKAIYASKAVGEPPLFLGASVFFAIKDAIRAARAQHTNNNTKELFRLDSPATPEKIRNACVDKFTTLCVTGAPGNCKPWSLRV
row,SMILES,xanthine oxidase inhibitory effect (in words)
1,"O=c1cc(-c2ccccc2)oc2cc(O)cc(O)c12 [Chrysin, 5,7-Dihydroxyflavone]",low xanthine oxidase inhibitory activity

# Same assay, conditions: xanthine oxidase inhibition, 295 nm; mean ± SEM (n = 3); NA: not active
row,SMILES,pIC50
1,"O=c1cc(-c2ccccc2)oc2cc(O)cc(O)c12 [Chrysin, 5,7-Dihydroxyflavone]",< 3.41

# System: not listed separately
# Test: Ferric reducing antioxidant power (FRAP)
# Settings: not given
# Procedure: This assay was based on the reduction of the ferric tripyridyltriazine (Fe III-TPTZ) complex to the ferrous ion (Fe II) at a low pH forming an intense blue color. In the FRAP assay, compounds that are rich in antioxidant effect exert their action by breaking the free radical chain by donating a hydrogen atom. Briefly, ferric reducing antioxidant power (FRAP) reagent (2.5 mL of a 10 mM TPTZ solution in 40 mM HCl, 2.5 mL of 20 mM FeCl3, and 25 mL of 0.1 M acetate buffer pH 3.6) was prepared and incubated for 10 min at 37°C. Then 20 μL of each compound and ascorbic acid (standard) and 40 μL of FRAP reagent were added to 140 μL of distilled water in a 96-well plate producing a blue-colored solution. The solutions were kept at room temperature for 20 min in the dark and then measured at 593 nm with a microplate reader (Tecan, Switzerland) using a reagent blank composed of 40 μL of FRAP reagents in 200 μL of distilled water. A calibration curve was prepared with a serial dilution of ascorbic acid (standard). The total antioxidant capacity was calculated by interpolating the measured absorbance of the calibration curve and expressed as ascorbic acid equivalents. The results were corrected for dilution and expressed as AAE μg of ascorbic acid/g.
row,SMILES,FRAP antioxidant capacity
1,COc1ccc2c(=O)cc(-c3ccccc3)oc2c1O [8-Hydroxy-7-methoxyflavone],104.92 ± 8.29 AAE μg of ascorbic acid/g
2,"COc1c(OC(C)=O)cc(OC(C)=O)c2c(=O)cc(-c3ccccc3)oc12 [Acetate (wogonin), 5,7-Diacetoxy-8-methoxyflavone]",5.06 ± 3.24 AAE μg of ascorbic acid/g
3,"O=c1cc(-c2ccccc2)oc2cc(O)cc(O)c12 [Chrysin, 5,7-Dihydroxyflavone]",21.38 ± 1.86 AAE μg of ascorbic acid/g
4,"O=c1cc(-c2ccccc2)oc2c(O)c(O)cc(O)c12 [Norwogonin, 5,7,8-Trihydroxyflavone]",177.37 ± 1.82 AAE μg of ascorbic acid/g
5,"COc1c(O)cc(O)c2c(=O)cc(-c3ccccc3)oc12 [Wogonin, 5,7-Dihydroxy-8-methoxyflavone]",39.15 ± 1.68 AAE μg of ascorbic acid/g

# Same assay, conditions: ascorbic acid equivalent; mean ± SEM (n = 3); Table 2
row,SMILES,FRAP (AAE μg)
1,COc1ccc2c(=O)cc(-c3ccccc3)oc2c1O [8-Hydroxy-7-methoxyflavone],104.92 ± 8.29^D AAE μg
2,"COc1c(OC(C)=O)cc(OC(C)=O)c2c(=O)cc(-c3ccccc3)oc12 [Acetate (wogonin), 5,7-Diacetoxy-8-methoxyflavone]",5.06 ± 3.24^G AAE μg
3,"O=c1cc(-c2ccccc2)oc2cc(O)cc(O)c12 [Chrysin, 5,7-Dihydroxyflavone]",21.38 ± 1.86^F AAE μg
4,"O=c1cc(-c2ccccc2)oc2c(O)c(O)cc(O)c12 [Norwogonin, 5,7,8-Trihydroxyflavone]",152.14 ± 7.30^C AAE μg
5,"COc1c(O)cc(O)c2c(=O)cc(-c3ccccc3)oc12 [Wogonin, 5,7-Dihydroxy-8-methoxyflavone]",39.15 ± 1.68^E AAE μg

# Target: α-glucosidase from Saccharomyces cerevisiae
# Test: α-Glucosidase inhibitory assay
# Format: biochemical
# Settings: Table 3; mean ± SEM (n = 3); NA: not active
# Procedure: α-Glucosidase inhibitory activity of the flavonoids was carried out according to the standard method with minor modification. […] A solution of 30 mM phosphate buffer (pH 6.5) was used to prepare stock solution of the sample to form a final concentration of 160 μg/mL. Then, 10 μL/well of sample was mixed with 15 μL/well of α-glucosidase from Saccharomyces cerevisiae (Megazyme, Ireland). 50 mM buffer (pH 6.5) was used to prepare the enzyme solution. Then, 115 μL/well of 30 mM buffer (pH 6.5) was added and incubated for 5 min at room temperature. Then, 75 μL/well of PNP-glucoside was added to initiate reaction and incubated at room temperature for 15 min. Finally, about 50 μL glycine at pH 10 was added to stop the reaction. The final volume of 250 μL of compound, positive control, enzyme, 30 mM buffer, and substrate was located in 96-well microplate. The absorbance (Abs) was measured using microplate reader (Tecan NanoQuant Infinite M200, Switzerland) at 405 nm to represent the amount of p-nitrophenol released from PNP-glucoside. […] The equation given below was used to calculate the inhibitory activity (%):(4) Inhibitory activity%=Abs control−Abs sample/Abs control×100%.
# Tested on yeast α-glycosidase, the reaction is initiated by reacting the inhibitor (sample) with the α-glycosidase enzyme that competes with […] for the binding site, thus releasing ρ-nitrophenol which was measured in the assay.
row,SMILES,IC50 α-Glucosidase
1,COc1ccc2c(=O)cc(-c3ccccc3)oc2c1O [8-Hydroxy-7-methoxyflavone],>100^A µg/mg
2,"COc1c(OC(C)=O)cc(OC(C)=O)c2c(=O)cc(-c3ccccc3)oc12 [Acetate (wogonin), 5,7-Diacetoxy-8-methoxyflavone]",>100^A µg/mg
3,"O=c1cc(-c2ccccc2)oc2cc(O)cc(O)c12 [Chrysin, 5,7-Dihydroxyflavone]",>100^A µg/mg
4,"O=c1cc(-c2ccccc2)oc2c(O)c(O)cc(O)c12 [Norwogonin, 5,7,8-Trihydroxyflavone]",>100^A µg/mg
5,"COc1c(O)cc(O)c2c(=O)cc(-c3ccccc3)oc12 [Wogonin, 5,7-Dihydroxy-8-methoxyflavone]",>100^A µg/mg

# Target: T2, DPP-4 (Homo sapiens, UniProt P27487)
# T2 construct: purchased Cayman (Michigan, USA)
# Test: Dipeptidyl peptidase IV (DPP-4) inhibitory assay
# Format: biochemical
# Settings: Table 3; mean ± SEM (n = 3); NA: not active
# Procedure: Dipeptidyl peptidase (IV) inhibitors work by inhibiting the action of this enzyme, thereby prolonging the activity of incretins that play an important role in insulin secretion and blood glucose control regulation. DPP-4 inhibitory assay was performed as per the standard method (Cayman, USA). Firstly, 1 mg of sample was dissolved in 10% of DMSO and MeOH as the stock solution. For initial activity (100%), 10 μL of MeOH, 30 μL of diluted assay buffer, and 10 μL of diluted DPP-4 (Cayman, USA) were added to 96-well microplate. […] For background well, 10 μL of MeOH and 40 μL of diluted assay buffer were added. Then, 10 μL of prepared sample and 30 μL of diluted assay buffer were added with 10 μL of diluted DPP-4. After that, 50 μL of substrate solution was added to all wells to initiate the reaction and further incubated in the dark at 37°C for 30 min. Finally, plate was read at 360 nm of excitation wavelength and 465 nm of emission wavelength using fluorescence microplate reader (Perkin Elmer, Germany). All determinations were done in triplicate and half maximal concentration (IC50) values were calculated from the percentage of inhibition based on the linear regression analysis. The equation given below was applied to calculate the inhibitory activity (%):(5) Inhibitory activity%=Initial Activity−Sample/Initial Activity×100%.
# For DPP-4 inhibitory assay, the reaction is based on the cleavage of the peptide bond by DPP releasing the free Gly-Pro-aminomethylcoumarin group, a fluorogenic substrate resulting in fluorescence excitation and emission.
# T2 sequence (P27487 whole entry): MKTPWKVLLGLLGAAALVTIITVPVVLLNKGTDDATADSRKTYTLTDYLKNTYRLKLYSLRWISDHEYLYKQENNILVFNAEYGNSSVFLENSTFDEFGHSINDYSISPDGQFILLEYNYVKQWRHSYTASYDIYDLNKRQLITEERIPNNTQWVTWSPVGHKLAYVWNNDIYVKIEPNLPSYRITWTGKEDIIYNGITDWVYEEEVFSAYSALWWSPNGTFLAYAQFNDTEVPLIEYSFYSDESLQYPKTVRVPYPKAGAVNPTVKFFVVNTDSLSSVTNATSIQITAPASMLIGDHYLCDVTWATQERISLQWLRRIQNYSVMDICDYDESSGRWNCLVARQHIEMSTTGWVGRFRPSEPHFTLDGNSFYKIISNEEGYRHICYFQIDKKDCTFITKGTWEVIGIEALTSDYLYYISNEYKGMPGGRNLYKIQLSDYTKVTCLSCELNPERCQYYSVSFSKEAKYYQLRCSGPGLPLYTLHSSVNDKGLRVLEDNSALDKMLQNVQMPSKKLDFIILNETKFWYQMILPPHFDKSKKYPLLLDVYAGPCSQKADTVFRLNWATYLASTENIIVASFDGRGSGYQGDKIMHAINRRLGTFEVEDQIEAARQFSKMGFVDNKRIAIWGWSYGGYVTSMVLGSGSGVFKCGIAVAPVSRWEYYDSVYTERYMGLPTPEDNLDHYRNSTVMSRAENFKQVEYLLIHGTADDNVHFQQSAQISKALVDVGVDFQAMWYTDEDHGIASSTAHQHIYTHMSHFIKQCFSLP
row,SMILES,pIC50
1,COc1ccc2c(=O)cc(-c3ccccc3)oc2c1O [8-Hydroxy-7-methoxyflavone],< 3.43
2,"O=c1cc(-c2ccccc2)oc2c(O)c(O)cc(O)c12 [Norwogonin, 5,7,8-Trihydroxyflavone]",< 3.43
3,"COc1c(O)cc(O)c2c(=O)cc(-c3ccccc3)oc12 [Wogonin, 5,7-Dihydroxy-8-methoxyflavone]",< 3.45

# — paper PMC5727842, “Antioxidant and Antidiabetic Effects of Flavonoids: A Structure-Activity Relationship Based Study” (BioMed Research International, 2017)
